Reference: article PMC7948495, “The flexible N-terminus of BchL autoinhibits activity through interaction with its [4Fe-4S] cluster and released upon ATP binding” (The Journal of Biological Chemistry, 2020)

How the values were obtained:
BchL [1] = target: T1, BchL (Cereibacter sphaeroides, UniProt Q9RFD6); assay: EPR of the [4Fe-4S] cluster; format: binding; conditions: 40 µM BchL, 3 mM ADP, 1.7 mM dithionite
T1 construct: full-length with N-terminal 6xHis tag and TEV site; recombinant, plasmid-expressed; anaerobically purified; homodimer bridged by one [4Fe-4S] cluster

BchL [2] = target: T1, BchL; assay: nitrocellulose filter binding; conditions: labelled compound (α32P-ATP tracer); 4 µM BchL, 1 mM ATP, 10 mM MgCl2, pH 7.5, 25 °C; stoichiometry, no affinity constant
linked-BchL (L1-L2) [3] = target: T2, linked-BchL (L1-L2) (Cereibacter sphaeroides, UniProt Q9RFD6); assay: nitrocellulose filter binding; conditions: labelled compound (α32P-ATP tracer); 4 µM BchL, 1 mM ATP, 10 mM MgCl2, pH 7.5, 25 °C; stoichiometry, no affinity constant
T2 construct: N-terminal 6xHis tag and TEV site
Source text: nitrocellulose filter binding on linked-BchL (L1-L2) | linked-BchL with unaltered ATP-binding sites ([…]) bind ATP to similar extents

BchL [4] = target: T3, BchL (Cereibacter sphaeroides, UniProt Q9RFD6, D180N/D182N); assay: nitrocellulose filter binding; conditions: labelled compound (α32P-ATP tracer); 4 µM BchL, 1 mM ATP, 10 mM MgCl2, pH 7.5, 25 °C; stoichiometry, no affinity constant
T3 construct: full-length with N-terminal 6xHis tag and TEV site; recombinant, plasmid-expressed; anaerobically purified; homodimer bridged by one [4Fe-4S] cluster

linked-BchL (L1-L2) [5] = target: T4, linked-BchL (L1-L2) (Cereibacter sphaeroides, UniProt Q9RFD6, K44A); assay: nitrocellulose filter binding; conditions: labelled compound (32P-ATP tracer); 1 mM ATP, 10 mM MgCl2, pH 7.5, 25 °C; one of two sites mutated
T4 construct: N-terminal 6xHis tag and TEV site

BchL [6] = target: T5, BchL (Cereibacter sphaeroides, UniProt Q9RFD6, S17A); assay: hydrogen-deuterium exchange mass spectrometry; format: binding; conditions: 2 mM ATP, 10 mM MgCl2, pD 7.5, anaerobic
T5 construct: full-length with N-terminal 6xHis tag and TEV site; recombinant, plasmid-expressed; anaerobically purified; homodimer bridged by one [4Fe-4S] cluster
T5 sequence (Q9RFD6 whole entry S17A): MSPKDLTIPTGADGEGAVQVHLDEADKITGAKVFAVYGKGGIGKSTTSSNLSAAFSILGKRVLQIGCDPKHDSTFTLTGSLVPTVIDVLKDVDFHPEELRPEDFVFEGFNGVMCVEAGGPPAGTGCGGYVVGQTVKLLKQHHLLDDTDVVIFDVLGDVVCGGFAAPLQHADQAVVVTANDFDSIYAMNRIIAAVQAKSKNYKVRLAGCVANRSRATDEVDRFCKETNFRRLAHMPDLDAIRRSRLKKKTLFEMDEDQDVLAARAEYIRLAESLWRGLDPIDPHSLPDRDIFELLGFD

T1 sequence (Q9RFD6 whole entry): as the sequence (Q9RFD6 whole entry S17A) above, with A17S counted along it
T3 sequence (Q9RFD6 whole entry D180N/D182N): as the sequence (Q9RFD6 whole entry S17A) above, with A17S, D180N, D182N counted along it
T2 sequence (Q9RFD6 whole entry): as the sequence (Q9RFD6 whole entry S17A) above, with A17S counted along it
T4 sequence (Q9RFD6 whole entry K44A): as the sequence (Q9RFD6 whole entry S17A) above, with A17S, K44A counted along it

Row | SMILES | EPR of the [4Fe-4S] cluster (BchL [1]) | ATP bound per BchL dimer (BchL [2]) | nitrocellulose filter binding (linked-BchL (L1-L2) [3]) | ATP bound per BchL dimer (BchL [4]) | nitrocellulose filter binding (linked-BchL (L1-L2) [5]) | hydrogen-deuterium exchange mass spectrometry (BchL [6])
1 | Nc1ncnc2c1ncn2[C@@H]1O[C@H](COP(=O)(O)OP(=O)(O)O)[C@@H](O)[C@H]1O [ADP] | with ADP, the proportion of the FeS^A species was diminished by a factor of two | – | – | – | – | –
2 | Nc1ncnc2c1ncn2[C@@H]1O[C@H](COP(=O)(O)OP(=O)(O)OP(=O)(O)O)[C@@H](O)[C@H]1O [ATP] | – | ~ 2 ATP per dimer | linked-BchL with unaltered ATP-binding sites (L1L2) bind ATP to similar extents | ~ 2 ATP per dimer | When only one of the two ATP binding sites is mutated (L1^KA-L2), partial ATP binding is observed | Both BchL and BchL^S17A show similar patterns of reduced deuteration upon binding to ATP
